Source: US10208033B2, “β-carboline, dihydro-β-carboline and tetrahydro-β-carboline alkaloid derivatives and preparation methods same and use in aspects of preventing and treating plant viruses, fungicides and insecticides” (NANKAI UNIVERSITY, priority 2013, dated 2019)
Read-outs that look alike come from different tables or passages of the source.

Experiments:
[1] = tested on: corn borers; conditions: concentration 600 mg/kg
[2] = tested on: Bipolaria maydis; test: organism not typed; format: cell-based; conditions: 50 mg/kg
[3] = tested on: Sclerotinia scleotiorum; test: Fungicidal (bactericidal) activity in vitro, PDA colony diameter; format: cell-based; conditions: 50 mg/kg
[4] = tested on: tobacco mosaic virus (TMV); test: Anti-TMV in vivo inactivation; design: species or system tobacco mosaic virus (host Nicotiana tabacum L.cv.Xanthi NN)
[5] = tested on: mosquito larvae; test: whole plant or invertebrate; conditions: 24 h
In short: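 Early fourth-instar Culex pipiens pallens larvae from an indoor colony, 10 per beaker, exposed to test compound at 5 ppm in water, diluted from a 1000 ppm acetone mother solution. Blank: water containing 0.5 mL test solvent.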

[6] = tested on: Colletotrichum orbiculare; test: Fungicidal (bactericidal) activity in vitro, PDA colony diameter; format: cell-based; conditions: 50 mg/kg
[7] = tested on: Fusarium fujikuroi; test: as above; format: cell-based; conditions: 50 mg/kg
[8] = tested on: Phytophthora capsici; test: as above; format: cell-based; conditions: 50 mg/kg
[9] = tested on: cucumber fusarium wilt; test: as above; format: cell-based; conditions: 50 mg/kg
[10] = tested on: Rhizoctonia solani; test: as above; format: cell-based; conditions: 50 mg/kg
[11] = tested on: potato late blight; test: microbe, parasite or virus in culture; format: cell-based
[12] = tested on: cotton bollworms; test: whole plant or invertebrate; conditions: concentration 600 mg/kg
Procedure: Experimental method of cotton bollworms: feed and drug mixing method: measure 3 mL of prepared solution and add it to about 27 g of newly prepared feed, thereby obtaining needed concentration through dilution by 10 times.

[13] = tested on: Alternaria solani; test: Fungicidal (bactericidal) activity in vitro, PDA colony diameter; format: cell-based; conditions: 50 mg/kg
[14] = tested on: Fusarium graminearumt; test: microbe, parasite or virus in culture; format: cell-based; conditions: 50 mg/kg
[15] = tested on: Cercospora arachidicola; test: Fungicidal (bactericidal) activity in vitro, PDA colony diameter; format: cell-based; conditions: 50 mg/kg
[16] = tested on: tobacco mosaic virus (TMV); test: Anti-TMV in vivo therapeutic effect; design: species or system tobacco mosaic virus (host Nicotiana tabacum L.cv.Xanthi NN)
[17] = tested on: Macrophoma kawatsukai; test: Fungicidal (bactericidal) activity in vitro, PDA colony diameter; format: cell-based; conditions: 50 mg/kg
[18] = tested on: Rhizoctonia cereali; test: as above; format: cell-based
[19] = tested on: armyworms; format: in vivo; conditions: concentration 600 mg/kg
[20] = tested on: tobacco mosaic virus (TMV); test: Anti-TMV in vivo protective effect; design: species or system tobacco mosaic virus (host Nicotiana tabacum L.cv.Xanthi NN)
[21] = tested on: Botrytis cinerea; test: Fungicidal (bactericidal) activity in vitro, PDA colony diameter; format: cell-based; conditions: 50 mg/kg
[22] = tested on: tobacco mosaic virus (TMV); test: Anti-TMV in vitro effect (half-leaf soaking); format: cell-based, tobacco mosaic virus (host Nicotiana tabacum L.cv.Xanthi NN)

## C[C@@H]1N[C@H](C(=O)NN=Cc2ccc(N(C)C)cc2)Cc2c1[nH]c1ccccc21 [Ic-3, (1S, 3S)—N′-(4-dimethylaminobenzylidene)-1-methyl-2,3,4,9-tetrahydropyridino [3,4-b] indol-3-formylhydrazine]
[1]
  Corn borer Mortality (%): 30%
[2]
  Bactericidal activity (%) Bipolaria maydis: 64.0%
[3]
  Bactericidal activity (%) Sclerotinia scleotiorum: 41.2%
[4]; treatment dose 100 μg/mL
  Relative inhibition rate (%) In vivo inactivation: 25%
[4]; treatment dose 500 μg/mL
  Relative inhibition rate (%) In vivo inactivation: 64.5%
[5]; concentration 10 mg/kg
  Mosquito larvae Mortality (%): 55%
[6]
  Bactericidal activity (%) Colletotrichum orbiculare: 48.1%
[7]
  Bactericidal activity (%) Fusarium fujikuroi: 35.7%
[8]
  Bactericidal activity (%) Phytophthora capsici: 78.9%
[9]
  Bactericidal activity (%) Cucumber fusarium wilt: 38.5%
[10]
  Bactericidal activity (%) Rhizoctonia solani: 63.2%
[11]
  Bactericidal activity (%) potato late blight: 72.0%
[12]
  Cotton bollworm Mortality (%): 40%
[13]
  Bactericidal activity (%) Alternaria solani: 65.0%
[14]
  Bactericidal activity (%) Fusarium graminearumt: 31.0%
[15]
  Bactericidal activity (%) Cercospora arachidicola: 76.5%
[16]; treatment dose 100 μg/mL
  Relative inhibition rate (%) In vivo therapy: 23.1%
[16]; treatment dose 500 μg/mL
  Relative inhibition rate (%) In vivo therapy: 60.4%
[17]
  Bactericidal activity (%) Macrophoma kawatsukai: 97.2%
[18]; 50 mg/kg
  Bactericidal activity (%) Rhizoctonia cereali: 96.1%
[19]
  Armyworm Mortality (%): 25%
[20]; treatment dose 100 μg/mL
  Relative inhibition rate (%) In vivo protection: 18.9%
[20]; treatment dose 500 μg/mL
  Relative inhibition rate (%) In vivo protection: 62.4%
[21]
  Bactericidal activity (%) Botrytis cinerea: 72.7%
[22]; treatment dose 100 μg/mL
  Relative inhibition rate (%) In vitro activity: 20.4%
[22]; treatment dose 500 μg/mL
  Relative inhibition rate (%) In vitro activity: 56.8%

## C[C@@H]1N[C@H](C(=O)NN=Cc2ccc([N+](=O)[O-])cc2)Cc2c1[nH]c1ccccc21 [Ic-4, (1S, 3S)—N′-(4-nitrobenzylidene)-1-methyl-2,3,4,9-tetrahydropyridino [3,4-b] indol-3-formylhydrazine]
[1]
  Corn borer Mortality (%): 35%
[2]
  Bactericidal activity (%) Bipolaria maydis: 60.0%
[3]
  Bactericidal activity (%) Sclerotinia scleotiorum: 88.2%
[4]; treatment dose 100 μg/mL
  Relative inhibition rate (%) In vivo inactivation: 27.4%
[4]; treatment dose 500 μg/mL
  Relative inhibition rate (%) In vivo inactivation: 58.3%
[5]; concentration 10 mg/kg
  Mosquito larvae Mortality (%): 65%
[6]
  Bactericidal activity (%) Colletotrichum orbiculare: 48.1%
[7]
  Bactericidal activity (%) Fusarium fujikuroi: 42.9%
[8]
  Bactericidal activity (%) Phytophthora capsici: 78.9%
[9]
  Bactericidal activity (%) Cucumber fusarium wilt: 38.5%
[10]
  Bactericidal activity (%) Rhizoctonia solani: 59.2%
[11]
  Bactericidal activity (%) potato late blight: 52.0%
[12]
  Cotton bollworm Mortality (%): 35%
[13]
  Bactericidal activity (%) Alternaria solani: 45.0%
[14]
  Bactericidal activity (%) Fusarium graminearumt: 58.6%
[15]
  Bactericidal activity (%) Cercospora arachidicola: 58.8%
[16]; treatment dose 100 μg/mL
  Relative inhibition rate (%) In vivo therapy: 20.8%
[16]; treatment dose 500 μg/mL
  Relative inhibition rate (%) In vivo therapy: 57.1%
[17]
  Bactericidal activity (%) Macrophoma kawatsukai: 72.2%
[18]; 50 mg/kg
  Bactericidal activity (%) Rhizoctonia cereali: 88.2%
[19]
  Armyworm Mortality (%): 30%
[20]; treatment dose 100 μg/mL
  Relative inhibition rate (%) In vivo protection: 21.4%
[20]; treatment dose 500 μg/mL
  Relative inhibition rate (%) In vivo protection: 61.5%
[21]
  Bactericidal activity (%) Botrytis cinerea: 72.7%
[22]; treatment dose 100 μg/mL
  Relative inhibition rate (%) In vitro activity: 19.6%
[22]; treatment dose 500 μg/mL
  Relative inhibition rate (%) In vitro activity: 62.8%

## C[C@@H]1N[C@H](C(=O)NN=Cc2ccc(Cl)cc2Cl)Cc2c1[nH]c1ccccc21 [Ic-6, (1S, 3S)—N′-(2,4-dichlorobenzylidene)-1-methyl-2,3,4,9-tetrahydropyridino [3,4-b] indol-3-formylhydrazine]
[1]
  Corn borer Mortality (%): 40%
[2]
  Bactericidal activity (%) Bipolaria maydis: 56.0%
[3]
  Bactericidal activity (%) Sclerotinia scleotiorum: 46.2%
[4]; treatment dose 100 μg/mL
  Relative inhibition rate (%) In vivo inactivation: 28.5%
[4]; treatment dose 500 μg/mL
  Relative inhibition rate (%) In vivo inactivation: 66.7%
[5]; concentration 5 mg/kg
  Mosquito larvae Mortality (%): 20%
[5]; concentration 10 mg/kg
  Mosquito larvae Mortality (%): 100%
[6]
  Bactericidal activity (%) Colletotrichum orbiculare: 60.0%
[7]
  Bactericidal activity (%) Fusarium fujikuroi: 47.1%
[8]
  Bactericidal activity (%) Phytophthora capsici: 60.6%
[9]
  Bactericidal activity (%) Cucumber fusarium wilt: 27.3%
[10]
  Bactericidal activity (%) Rhizoctonia solani: 45.8%
[11]
  Bactericidal activity (%) potato late blight: 39.1%
[12]
  Cotton bollworm Mortality (%): 35%
[13]
  Bactericidal activity (%) Alternaria solani: 42.9%
[14]
  Bactericidal activity (%) Fusarium graminearumt: 53.8%
[15]
  Bactericidal activity (%) Cercospora arachidicola: 45.5%
[16]; treatment dose 100 μg/mL
  Relative inhibition rate (%) In vivo therapy: 31.5%
[16]; treatment dose 500 μg/mL
  Relative inhibition rate (%) In vivo therapy: 60.4%
[17]
  Bactericidal activity (%) Macrophoma kawatsukai: 48.5%
[18]
  Bactericidal activity (%) Rhizoctonia cereali: 56.8%
[19]
  Armyworm Mortality (%): 45%
[20]; treatment dose 100 μg/mL
  Relative inhibition rate (%) In vivo protection: 18.6%
[20]; treatment dose 500 μg/mL
  Relative inhibition rate (%) In vivo protection: 57.2%
[21]
  Bactericidal activity (%) Botrytis cinerea: 52.8%
[22]; treatment dose 100 μg/mL
  Relative inhibition rate (%) In vitro activity: 20.1%
[22]; treatment dose 500 μg/mL
  Relative inhibition rate (%) In vitro activity: 56.8%

## COc1ccc(C=NNC(=O)[C@@H]2Cc3c([nH]c4ccccc34)[C@H](C)N2)cc1 [Ic-8, (1S, 3S)—N′-(4-methoxybenzylidene)-1-methyl-2,3,4,9-tetrahydropyridino [3,4-b] indol-3-formylhydrazine]
[1]
  Corn borer Mortality (%): 15%
[2]
  Bactericidal activity (%) Bipolaria maydis: 68.0%
[3]
  Bactericidal activity (%) Sclerotinia scleotiorum: 94.1%
[4]; treatment dose 100 μg/mL
  Relative inhibition rate (%) In vivo inactivation: 30.4%
[4]; treatment dose 500 μg/mL
  Relative inhibition rate (%) In vivo inactivation: 69.1%
[5]; concentration 10 mg/kg
  Mosquito larvae Mortality (%): 35%
[6]
  Bactericidal activity (%) Colletotrichum orbiculare: 55.6%
[7]
  Bactericidal activity (%) Fusarium fujikuroi: 64.3%
[8]
  Bactericidal activity (%) Phytophthora capsici: 73.7%
[9]
  Bactericidal activity (%) Cucumber fusarium wilt: 23.1%
[10]
  Bactericidal activity (%) Rhizoctonia solani: 59.2%
[11]
  Bactericidal activity (%) potato late blight: 52.0%
[12]
  Cotton bollworm Mortality (%): 35%
[13]
  Bactericidal activity (%) Alternaria solani: 30.0%
[14]
  Bactericidal activity (%) Fusarium graminearumt: 65.5%
[15]
  Bactericidal activity (%) Cercospora arachidicola: 64.7%
[16]; treatment dose 100 μg/mL
  Relative inhibition rate (%) In vivo therapy: 34.8%
[16]; treatment dose 500 μg/mL
  Relative inhibition rate (%) In vivo therapy: 66.4%
[17]
  Bactericidal activity (%) Macrophoma kawatsukai: 72.2%
[18]; 50 mg/kg
  Bactericidal activity (%) Rhizoctonia cereali: 84.3%
[19]
  Armyworm Mortality (%): 20%
[20]; treatment dose 100 μg/mL
  Relative inhibition rate (%) In vivo protection: 31.8%
[20]; treatment dose 500 μg/mL
  Relative inhibition rate (%) In vivo protection: 70%
[21]
  Bactericidal activity (%) Botrytis cinerea: 59.1%
[22]; treatment dose 100 μg/mL
  Relative inhibition rate (%) In vitro activity: 28.7%
[22]; treatment dose 500 μg/mL
  Relative inhibition rate (%) In vitro activity: 62.5%

## COc1cccc(C=NNC(=O)[C@@H]2Cc3c([nH]c4ccccc34)[C@H](C)N2)c1 [Ic-9, (1S, 3S)—N′-(3-methoxybenzylidene)-1-methyl-2,3,4,9-tetrahydropyridino [3,4-b] indol-3-formylhydrazine]
[1]
  Corn borer Mortality (%): 40%
[2]
  Bactericidal activity (%) Bipolaria maydis: 48.0%
[3]
  Bactericidal activity (%) Sclerotinia scleotiorum: 88.2%
[4]; treatment dose 100 μg/mL
  Relative inhibition rate (%) In vivo inactivation: 22.1%
[4]; treatment dose 500 μg/mL
  Relative inhibition rate (%) In vivo inactivation: 59.2%
[5]; concentration 10 mg/kg
  Mosquito larvae Mortality (%): 75%
[6]
  Bactericidal activity (%) Colletotrichum orbiculare: 40.7%
[7]
  Bactericidal activity (%) Fusarium fujikuroi: 57.1%
[8]
  Bactericidal activity (%) Phytophthora capsici: 81.6%
[9]
  Bactericidal activity (%) Cucumber fusarium wilt: 34.6%
[10]
  Bactericidal activity (%) Rhizoctonia solani: 68.4%
[11]
  Bactericidal activity (%) potato late blight: 40.0%
[12]
  Cotton bollworm Mortality (%): 30%
[13]
  Bactericidal activity (%) Alternaria solani: 65.0%
[14]
  Bactericidal activity (%) Fusarium graminearumt: 41.4%
[15]
  Bactericidal activity (%) Cercospora arachidicola: 58.8%
[16]; treatment dose 100 μg/mL
  Relative inhibition rate (%) In vivo therapy: 16.5%
[16]; treatment dose 500 μg/mL
  Relative inhibition rate (%) In vivo therapy: 54%
[17]
  Bactericidal activity (%) Macrophoma kawatsukai: 69.4%
[18]; 50 mg/kg
  Bactericidal activity (%) Rhizoctonia cereali: 92.2%
[19]
  Armyworm Mortality (%): 35%
[20]; treatment dose 100 μg/mL
  Relative inhibition rate (%) In vivo protection: 20.6%
[20]; treatment dose 500 μg/mL
  Relative inhibition rate (%) In vivo protection: 54.7%
[21]
  Bactericidal activity (%) Botrytis cinerea: 68.2%
[22]; treatment dose 100 μg/mL
  Relative inhibition rate (%) In vitro activity: 13.2%
[22]; treatment dose 500 μg/mL
  Relative inhibition rate (%) In vitro activity: 53.2%
